Laboratory results from US20240425807A1, “MANUFACTURING METHOD OF MIXED POWDER, MIXED POWDER, POWDER, AND POWDER MEDIUM” (FUJIFILM Corporation, priority 2022, published 2024).

Columns and labels:
[1] = Overall evaluation based on solubility and liquid property; assay type: physicochemical; settings: combined from solubility and liquid property
[2] = Liquid property (pH) of solution obtained in solubility evaluation; assay type: physicochemical; settings: pH of the solution obtained in the solubility evaluation (tyrosine 0.44 g/L in distilled water)
Experimental: A pH of the solution obtained in the evaluation of solubility was evaluated. Liquid property was evaluated according to the following evaluation standard.

Structure (SMILES): N[C@@H](Cc1ccc(O)cc1)C(=O)O [Comparative Example 1, L-tyrosine]
- Overall evaluation [1]: E (the solution was still turbid even after 1 hour, and/or the pH was other than neutral)
- Liquid property [2]: Neutral (pH of 6.0 to 8.5)
